Target: ATP-binding cassette sub-family C member 2 (Rattus norvegicus, UniProt Q63120)
Assay: TP_TRANSPORTER: transcellular transport in MDCKII(+GSH)
Type: functional, cell-based
Conditions: dog, mdck-ii

Sequence of ATP-binding cassette sub-family C member 2 (Q63120 whole entry): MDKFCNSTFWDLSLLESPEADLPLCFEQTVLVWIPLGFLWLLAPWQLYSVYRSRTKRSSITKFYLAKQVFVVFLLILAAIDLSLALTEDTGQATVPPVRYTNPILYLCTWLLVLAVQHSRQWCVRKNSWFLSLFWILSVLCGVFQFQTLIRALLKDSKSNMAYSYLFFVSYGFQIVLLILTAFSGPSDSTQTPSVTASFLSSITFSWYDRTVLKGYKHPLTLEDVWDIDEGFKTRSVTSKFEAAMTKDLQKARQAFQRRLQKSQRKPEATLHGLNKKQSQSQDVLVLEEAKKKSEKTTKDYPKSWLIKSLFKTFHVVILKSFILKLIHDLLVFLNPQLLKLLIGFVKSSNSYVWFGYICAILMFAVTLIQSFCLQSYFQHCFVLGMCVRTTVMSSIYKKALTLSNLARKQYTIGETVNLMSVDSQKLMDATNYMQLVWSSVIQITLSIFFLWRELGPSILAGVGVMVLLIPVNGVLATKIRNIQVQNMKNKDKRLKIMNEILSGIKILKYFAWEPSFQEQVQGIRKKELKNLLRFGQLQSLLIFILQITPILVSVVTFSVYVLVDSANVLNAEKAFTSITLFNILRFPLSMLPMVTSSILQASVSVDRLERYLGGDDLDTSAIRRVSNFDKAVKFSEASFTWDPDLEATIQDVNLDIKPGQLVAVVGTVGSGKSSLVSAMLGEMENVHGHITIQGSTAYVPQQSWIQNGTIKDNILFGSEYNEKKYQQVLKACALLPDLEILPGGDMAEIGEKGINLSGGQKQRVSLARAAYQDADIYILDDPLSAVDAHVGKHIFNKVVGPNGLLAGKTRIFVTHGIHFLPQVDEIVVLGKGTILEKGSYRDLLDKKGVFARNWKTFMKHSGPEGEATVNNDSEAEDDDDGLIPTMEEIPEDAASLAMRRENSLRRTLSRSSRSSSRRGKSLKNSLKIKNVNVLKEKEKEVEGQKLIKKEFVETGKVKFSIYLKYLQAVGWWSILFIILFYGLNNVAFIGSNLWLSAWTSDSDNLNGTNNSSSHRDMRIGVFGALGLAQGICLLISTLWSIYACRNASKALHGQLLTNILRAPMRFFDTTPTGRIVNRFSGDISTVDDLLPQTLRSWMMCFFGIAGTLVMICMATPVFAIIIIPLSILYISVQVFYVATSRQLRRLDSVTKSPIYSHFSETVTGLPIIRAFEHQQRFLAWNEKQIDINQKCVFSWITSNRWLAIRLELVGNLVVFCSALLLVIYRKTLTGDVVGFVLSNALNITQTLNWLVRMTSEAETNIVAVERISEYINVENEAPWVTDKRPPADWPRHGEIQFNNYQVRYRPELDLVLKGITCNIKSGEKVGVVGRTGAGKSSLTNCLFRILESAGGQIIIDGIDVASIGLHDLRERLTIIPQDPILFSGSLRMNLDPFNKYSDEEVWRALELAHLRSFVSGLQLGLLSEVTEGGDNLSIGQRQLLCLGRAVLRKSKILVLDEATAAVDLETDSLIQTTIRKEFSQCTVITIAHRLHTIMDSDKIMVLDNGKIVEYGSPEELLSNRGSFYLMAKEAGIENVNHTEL

COc1ccc2c(c[n+](C)c3c4cc5c(cc4ccc23)OCO5)c1OC [CHELERYTHRINE]
Activity: substrate []

Source: ChEMBL document CHEMBL2074410, “Chelerythrine stimulates GSH transport by rat Mrp2 (Abcc2) expressed in canine kidney cells” (Am J Physiol Gastrointest Liver Physiol, 2003)
